Here are results for 21 compounds from patent US11040981B2, “Pyrrolotriazine compounds and methods of inhibiting TAM kinases” (Syros Pharmaceuticals, Inc., priority 2017, dated 2021).

Molecules are shown by their SMILES. pIC50: −log10 of the molar value. A value given as a limit tells only on which side of the number the result lay.

One assay has as its target T1, AXL (Homo sapiens, UniProt P30530).
T1 sequence (P30530 26-894): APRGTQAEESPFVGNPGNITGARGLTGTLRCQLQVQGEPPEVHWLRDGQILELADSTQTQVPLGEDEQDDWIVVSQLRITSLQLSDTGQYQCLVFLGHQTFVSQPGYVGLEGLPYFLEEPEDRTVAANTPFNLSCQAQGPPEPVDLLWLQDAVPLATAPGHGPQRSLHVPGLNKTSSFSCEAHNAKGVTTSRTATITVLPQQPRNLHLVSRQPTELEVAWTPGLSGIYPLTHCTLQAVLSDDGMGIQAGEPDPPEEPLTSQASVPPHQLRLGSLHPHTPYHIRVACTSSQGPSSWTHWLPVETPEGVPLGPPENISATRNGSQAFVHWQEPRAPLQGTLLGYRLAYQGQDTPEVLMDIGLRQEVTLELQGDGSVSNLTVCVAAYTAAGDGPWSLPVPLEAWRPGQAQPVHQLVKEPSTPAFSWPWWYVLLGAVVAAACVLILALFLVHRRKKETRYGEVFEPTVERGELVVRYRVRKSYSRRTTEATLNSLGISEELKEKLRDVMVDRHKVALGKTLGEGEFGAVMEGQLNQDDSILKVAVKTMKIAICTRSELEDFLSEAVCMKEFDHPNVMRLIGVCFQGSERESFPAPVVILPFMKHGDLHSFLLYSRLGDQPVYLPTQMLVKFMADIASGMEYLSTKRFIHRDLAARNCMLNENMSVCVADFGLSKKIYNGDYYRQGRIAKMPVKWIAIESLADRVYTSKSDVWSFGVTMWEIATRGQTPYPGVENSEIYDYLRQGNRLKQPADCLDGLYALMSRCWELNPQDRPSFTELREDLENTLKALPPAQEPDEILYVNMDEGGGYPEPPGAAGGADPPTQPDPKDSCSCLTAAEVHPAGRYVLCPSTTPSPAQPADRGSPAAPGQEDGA
In words: TR-FRET kinase activity assay, AXL. The assay is classed as biochemical. The following applies: ATP at Km, 60 minutes. Summed up: (§1)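 Inhibition is measured as loss of phospho-peptide formation: kinase, fluorescent tyrosine peptide and compound are combined, ATP is added at Km, and the reaction proceeds 60 min at RT in pH 7.5 HEPES buffer. An EDTA stop and Eu-labelled phospho-specific antibody allow TR-FRET detection for IC50 fitting.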

The next assay has as its target T2, MERTK (Homo sapiens, UniProt Q12866).
T2 sequence (Q12866 21-999): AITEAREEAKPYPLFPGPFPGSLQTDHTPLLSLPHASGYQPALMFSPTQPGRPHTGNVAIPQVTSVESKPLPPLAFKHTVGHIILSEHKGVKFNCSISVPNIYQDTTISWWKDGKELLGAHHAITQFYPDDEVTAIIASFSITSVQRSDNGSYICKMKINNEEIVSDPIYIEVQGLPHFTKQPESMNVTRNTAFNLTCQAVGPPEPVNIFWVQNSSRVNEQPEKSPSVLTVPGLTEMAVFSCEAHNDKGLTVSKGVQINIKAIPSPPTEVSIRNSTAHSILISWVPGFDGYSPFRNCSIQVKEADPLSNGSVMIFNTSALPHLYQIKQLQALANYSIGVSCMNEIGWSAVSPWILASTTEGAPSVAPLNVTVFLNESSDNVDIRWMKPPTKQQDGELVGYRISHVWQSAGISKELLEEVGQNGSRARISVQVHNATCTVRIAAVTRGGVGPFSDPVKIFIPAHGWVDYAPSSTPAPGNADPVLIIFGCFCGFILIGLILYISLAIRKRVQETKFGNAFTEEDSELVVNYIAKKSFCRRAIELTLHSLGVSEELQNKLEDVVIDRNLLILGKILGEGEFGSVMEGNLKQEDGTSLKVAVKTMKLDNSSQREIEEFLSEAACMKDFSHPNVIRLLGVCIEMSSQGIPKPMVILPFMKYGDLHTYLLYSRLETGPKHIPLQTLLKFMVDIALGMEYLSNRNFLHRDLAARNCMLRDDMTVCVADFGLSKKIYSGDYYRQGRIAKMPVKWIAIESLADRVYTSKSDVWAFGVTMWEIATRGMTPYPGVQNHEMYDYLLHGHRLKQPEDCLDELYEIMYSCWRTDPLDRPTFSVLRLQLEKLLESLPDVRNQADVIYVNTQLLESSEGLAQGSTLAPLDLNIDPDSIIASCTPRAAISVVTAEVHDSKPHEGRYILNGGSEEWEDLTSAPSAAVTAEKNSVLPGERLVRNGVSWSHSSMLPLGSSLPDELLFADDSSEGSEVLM
In words: TR-FRET kinase activity assay, MERTK. Format: biochemical. The following applies: for pIC50: TR-FRET activity assay, ATP at Km, 60 minutes, read-out: Mer IC50; for FLT3/Mer ratio (FLT3 IC50/Mer IC50): ratio of Mer to FLT3: FLT3 IC50/Mer IC50. In outline:
as §1
In general terms: TR-FRET usually uses a lanthanide donor and a delayed reading to cut background.

As a reminder, the pIC50 is the negative decadic logarithm of the IC50, by convention in mol/L. `C[C@@H](CC(F)(F)F)Nc1ncc2c(-c3cncc(C(=O)N(C)C)c3)cc([C@H]3CC[C@H](O)CC3)n2n1` [Compound 310]: the negative-log IC50 (pIC50) on AXL is at least 7.00. Further, on MERTK, the pIC50 was at least 7.00 and the “FLT3/Mer ratio (FLT3 IC50/Mer IC50)” value was “+++ (“+++” represents a ratio of >100)”.

For `C[C@@H](CC(F)(F)F)Nc1ncc2c(-c3cncc(C(=O)N4CCOCC4)c3)cc([C@H]3CC[C@H](O)CC3)n2n1` [Compound 311], the negative-log IC50 (pIC50) at AXL is at least 7.00. Also, on MERTK, the pIC50 is at least 7.00 and the “FLT3/Mer ratio (FLT3 IC50/Mer IC50)” value is listed as “+++ (“+++” represents a ratio of >100)”.

In turn, `Cc1nnc(Cn2cc(-c3cc([C@H]4CC[C@H](O)CC4)n4nc(N[C@@H](C)COC(F)F)ncc34)cn2)o1` [Compound 312] gave a pIC50 at AXL of at least 7.00. In addition, at MERTK, the pIC50 was at least 7.00 and the “FLT3/Mer ratio (FLT3 IC50/Mer IC50)” value is “+++ (“+++” represents a ratio of >100)”.

In the case of `Cc1cc(-c2cc([C@H]3CC[C@H](O)CC3)n3nc(N[C@@H](C)COC(F)F)ncc23)ccn1` [Compound 313], on AXL, the negative logarithm of the IC50 (pIC50) is at least 7.00. In addition, at MERTK, the pIC50 was at least 7.00 and the “FLT3/Mer ratio (FLT3 IC50/Mer IC50)” value is “+++ (“+++” represents a ratio of >100)”.

For the compound `COC[C@H](C)Nc1ncc2c(-c3cnn(Cc4ccc(S(C)(=O)=O)cc4)c3)cc([C@H]3CC[C@H](O)CC3)n2n1` [Compound 314], the pIC50 against AXL was at least 7.00. Also, on MERTK, the negative logarithm of the IC50 (pIC50) was at least 7.00 and the “FLT3/Mer ratio (FLT3 IC50/Mer IC50)” value is “+++ (“+++” represents a ratio of >100)”.

Take `COC[C@H](C)Nc1ncc2c(-c3cnn([C@@H]4CCNC4=O)c3)cc([C@H]3CC[C@H](O)CC3)n2n1` [Compound 315]: the pIC50 at AXL and at MERTK was at least 7.00 in each case. For the same compound, at MERTK, the “FLT3/Mer ratio (FLT3 IC50/Mer IC50)” value is reported as “+++ (“+++” represents a ratio of >100)”.

Turning to `CNc1c(N[C@H]2CC[C@H](c3cc(-c4ccc(CN5CCOCC5)cc4)c4cnc(N[C@@H](C)COC)nn43)CC2)c(=O)c1=O` [Compound 316, 3-(((trans)-4-(2-(((S)-1-methoxypropan-2-yl)amino)-5-(4-(morpholinomethyl)phenyl)pyrrolo[2,1-f][1,2,4]triazin-7-yl)cyclohexyl)amino)-4-(methylamino)cyclobut-3-ene-1,2-dione], the pIC50 at AXL and at MERTK was at least 7.00 in each case. Moreover, the “FLT3/Mer ratio (FLT3 IC50/Mer IC50)” value at MERTK was “++ (“++” represents a ratio of between 10 and 100)”.

With `CNC(=O)c1ccc(-c2cc([C@H]3CC[C@H](O)CC3)n3nc(N[C@@H](C)COC)ncc23)cn1` [Compound 317], the negative-log IC50 (pIC50) at AXL and on MERTK was at least 7.00 each time. On MERTK, the “FLT3/Mer ratio (FLT3 IC50/Mer IC50)” value is “+++ (“+++” represents a ratio of >100)”.

For `COC[C@H](C)Nc1ncc2c(-c3cnn(C(C)(C)C(=O)N4CCC5(COC5)C4)c3)cc([C@H]3CC[C@H](O)CC3)n2n1` [Compound 318], the pIC50 on AXL was at least 7.00. On MERTK, the pIC50 was at least 7.00 and the “FLT3/Mer ratio (FLT3 IC50/Mer IC50)” value was “+++ (“+++” represents a ratio of >100)”.

Turning to `COC[C@H](C)Nc1ncc2c(-c3cnn(C(C)(C)C(=O)C4C[C@H]5COC[C@H]5C4)c3)cc([C@H]3CC[C@H](O)CC3)n2n1` (stereo partly drawn) [Compound 319], the pIC50 against AXL is at least 7.00. For the same compound, on MERTK, the pIC50 is at least 7.00 and the “FLT3/Mer ratio (FLT3 IC50/Mer IC50)” value is recorded as “+++ (“+++” represents a ratio of >100)”.

`COC[C@H](C)Nc1ncc2c(-c3cnn(C(C)(C)C(=O)N4C[C@@H](C)O[C@@H](C)C4)c3)cc([C@H]3CC[C@H](O)CC3)n2n1` [Compound 320]: at AXL, the pIC50 was at least 7.00. Also, at MERTK, the pIC50 is at least 7.00 and the “FLT3/Mer ratio (FLT3 IC50/Mer IC50)” value is reported as “+++ (“+++” represents a ratio of >100)”.

`Cc1ccc(-c2cc([C@H]3CC[C@H](O)CC3)n3nc(N[C@@H](C)COC(F)F)ncc23)cn1` [Compound 321] gave a pIC50 at AXL of at least 7.00. Further, on MERTK, the pIC50 was at least 7.00 and the “FLT3/Mer ratio (FLT3 IC50/Mer IC50)” value is on record as “+++ (“+++” represents a ratio of >100)”.

Turning to `COCC(C)Nc1ncc2c(-c3cnn(Cc4ccc(=O)n(C)c4)c3)cc(C3CCC(O)CC3)n2n1` (stereo not drawn) [Compound 322], the negative logarithm of the IC50 (pIC50) at AXL is at least 7.00. On MERTK, the pIC50 was at least 7.00 and the “FLT3/Mer ratio (FLT3 IC50/Mer IC50)” value is “+++ (“+++” represents a ratio of >100)”.

`COC[C@H](C)Nc1ncc2c(-c3cnn(C4CCS(=O)(=O)CC4)c3)cc([C@H]3CC[C@H](O)CC3)n2n1` [Compound 323] had a pIC50 on AXL of at least 7.00. In addition, at MERTK, the negative logarithm of the IC50 (pIC50) was at least 7.00 and the “FLT3/Mer ratio (FLT3 IC50/Mer IC50)” value is recorded as “+++ (“+++” represents a ratio of >100)”.

`COC[C@H](C)Nc1ncc2c(-c3cnn(C[C@H]4CCC(=O)N4)c3)cc([C@H]3CC[C@H](O)CC3)n2n1` [Compound 324]: the pIC50 against AXL was at least 7.00. At MERTK, the pIC50 is at least 7.00 and the “FLT3/Mer ratio (FLT3 IC50/Mer IC50)” value is “+++ (“+++” represents a ratio of >100)”.

`COC[C@H](C)Nc1ncc2c(-c3cnn(C(C)(C)C(=O)N4CC5(COC5)C4)c3)cc([C@H]3CC[C@H](O)CC3)n2n1` [Compound 326] showed a pIC50 on AXL of at least 7.00. Besides, at MERTK, the pIC50 is at least 7.00 and the “FLT3/Mer ratio (FLT3 IC50/Mer IC50)” value is “+++ (“+++” represents a ratio of >100)”.

On to `COC[C@H](C)Nc1ncc2c(-c3cnn(C(C)(C)C(=O)N4C[C@H]5CC[C@@H](C4)O5)c3)cc([C@H]3CC[C@H](O)CC3)n2n1` [Compound 327], for which the pIC50 at AXL and at MERTK was at least 7.00 throughout. The “FLT3/Mer ratio (FLT3 IC50/Mer IC50)” value on MERTK was “+++ (“+++” represents a ratio of >100)”.

Consider `COC[C@H](C)Nc1ncc2c(-c3cnn(C(C)(C)C(=O)N4C[C@H](C)O[C@@H](C)C4)c3)cc([C@H]3CC[C@H](O)CC3)n2n1` [Compound 328], for which the pIC50 against AXL and on MERTK was at least 7.00 in each case. The “FLT3/Mer ratio (FLT3 IC50/Mer IC50)” value at MERTK is on record as “+++ (“+++” represents a ratio of >100)”.

For the compound `COC[C@H](C)Nc1ncc2c(-c3cnn(Cc4cncc(C)n4)c3)cc([C@H]3CC[C@H](O)CC3)n2n1` [Compound 329], the pIC50 against AXL was at least 7.00. In addition, at MERTK, the pIC50 was at least 7.00 and the “FLT3/Mer ratio (FLT3 IC50/Mer IC50)” value was “+++ (“+++” represents a ratio of >100)”.

In the case of `COC[C@H](C)Nc1ncc2c(-c3cnn(C4CC(C(=O)OC)C4)c3)cc([C@H]3CC[C@H](O)CC3)n2n1` (stereo partly drawn) [Compound 330], the pIC50 on AXL was at least 7.00. Further, on MERTK, the pIC50 is at least 7.00 and the “FLT3/Mer ratio (FLT3 IC50/Mer IC50)” value is recorded as “+++ (“+++” represents a ratio of >100)”.

At AXL, `COC[C@H](C)Nc1ncc2c(-c3cnn(C(C)(C)C(=O)N4CCS(=O)(=O)CC4)c3)cc([C@H]3CC[C@H](O)CC3)n2n1` [Compound 331, 1-(1,1-dioxidothiomorpholino)-2-(4-(7-((trans)-4-hydroxycyclohexyl)-2-(((S)-1-methoxypropan-2-yl)amino)pyrrolo[2,1-f][1,2,4]triazin-5-yl)-1H-pyrazol-1-yl)-2-methylpropan-1-one] had a pIC50 of at least 7.00. Also, on MERTK, the pIC50 is at least 7.00 and the “FLT3/Mer ratio (FLT3 IC50/Mer IC50)” value was “+++ (“+++” represents a ratio of >100)”.
